Assay results taken from patent US9834558B2, “Substituted bridged urea analogs as sirtuin modulators” (GLAXOSMITHKLINE LLC, priority 2013, dated 2017).
Counter-ions that a name gives are not always drawn. Like-named read-outs stand apart in the source and are kept apart here. Values belong to the compound of their own block, whether it stands above or below them.

Target: T1, SIRT1 (Homo sapiens, UniProt Q96EB6)
T1 sequence (Q96EB6 1-747): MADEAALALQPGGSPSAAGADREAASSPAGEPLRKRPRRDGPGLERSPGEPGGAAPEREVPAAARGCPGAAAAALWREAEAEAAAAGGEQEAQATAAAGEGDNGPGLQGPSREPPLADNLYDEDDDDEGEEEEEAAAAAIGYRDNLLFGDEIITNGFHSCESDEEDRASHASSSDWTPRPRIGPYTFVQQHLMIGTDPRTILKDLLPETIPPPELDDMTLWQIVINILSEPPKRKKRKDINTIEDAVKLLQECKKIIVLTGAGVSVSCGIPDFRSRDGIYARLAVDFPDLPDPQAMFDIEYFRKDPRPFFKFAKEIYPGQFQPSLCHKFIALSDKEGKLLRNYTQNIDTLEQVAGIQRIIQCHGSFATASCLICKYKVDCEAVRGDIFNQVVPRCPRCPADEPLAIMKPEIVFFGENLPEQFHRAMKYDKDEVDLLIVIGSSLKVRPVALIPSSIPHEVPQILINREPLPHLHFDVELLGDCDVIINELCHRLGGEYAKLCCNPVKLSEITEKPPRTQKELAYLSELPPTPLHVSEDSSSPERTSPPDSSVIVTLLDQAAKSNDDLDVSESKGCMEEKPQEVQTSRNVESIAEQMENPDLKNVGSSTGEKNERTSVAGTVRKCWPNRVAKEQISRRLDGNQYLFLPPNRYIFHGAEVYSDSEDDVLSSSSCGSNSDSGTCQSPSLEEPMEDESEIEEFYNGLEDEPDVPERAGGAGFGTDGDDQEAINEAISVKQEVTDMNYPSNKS
Test: Trp mass spectrometry assay of SIRT1 activation
Assay type: biochemical
Conditions: for TRP Activity (EC1.5): EC1.5 = concentration that results in 150% activation of SIRT1
In short: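 N-terminal His-tagged human SIRT1 (10 nM, E. coli BL21(DE3)) with 0.5 μM Ac-RHKK(Ac)W-NH2 peptide and 120 μM βNAD+, 25 min at 25 °C in HEPES pH 7.5, formic acid stop. OAADPR or deacetylated peptide quantified by mass spectrometry; EC1.5 (50% activity increase over control) and Percent Maximum Activation reported.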

[1] = Trp mass spectrometry assay, EC1.5 = concentration of test compound that results in 150% activation of SIRT1
[2] = Trp mass spectrometry assay, concentration of test compound giving 150% activation of SIRT1
[3] = concentration giving 150% activation of SIRT1, Trp peptide substrate
[4] = Trp peptide assay, maximum activity relative to control (100%), read-out: TRP MAX RESP (percent maximum fold activation)
[5] = percent maximum fold activation of SIRT1, Trp peptide substrate, read-out: Tryp % Fold Act

SMILES: O=C(NC1CC1)c1ccc2c(n1)N(C(=O)Nc1ccccn1)[C@H]1CCN2C1 [(9S)-5-N-cyclopropyl-8-N-(pyridin-2-yl)-1,6,8-triazatricyclo[7.2.1.0^{2,7}]dodeca-2(7),3,5-triene-5,8-dicarboxamide]
TRP Activity (EC1.5) (Trp peptide assay): A (A (EC1.5<1 μM))
Emax (read-out: TRP MAX RESP (percent maximum fold activation)): > 150%

Tryp AVG EC1.5 (μM) [1]: A (A (EC1.5<1 μM))
SMILES: O=C(Nc1cnccn1)N1c2nc(-c3ccnc(N4CC[C@H](F)C4)c3)ccc2N2CC[C@H]1C2 [Example 436]

Tryp AVG EC1.5 (μM) [2]: B (B (EC1.5 1-25 μM))
SMILES: O=C(Nc1ccccn1)N1c2nc(-c3ccc4nonc4c3)ccc2N2CC[C@H]1C2 [Example 372]

Tryp AVG EC1.5 (μM) [1]: B (B (EC1.5 1-25 μM))
SMILES: O=C(Nc1cccnc1)N1c2nc(-c3cncc(Cl)c3)ccc2N2CCC1CC2 [Example 544]

Tryp AVG EC1.5 (μM) [1]: C (C (EC1.5>25 μM))
SMILES: O=C(Nc1cncc(F)c1)N1c2nc(N3CC[C@H](F)C3)ccc2S(=O)(=O)N2CC[C@H]1C2 [Example 469]

Tryp AVG EC1.5 (μM) [3]: B (B (EC1.5 1-25 μM))
SMILES: COc1cc(NC(=O)N2c3nc(-c4cncc(C(F)(F)F)c4)ccc3N3C[C@@H](O)[C@H]2C3)ncn1 [Example 696]

Tryp AVG EC1.5 (μM) [1]: A (A (EC1.5<1 μM))
SMILES: Cc1cc(NC(=O)N2c3nc(-c4cccc(C(F)(F)F)c4)ccc3N3CC[C@H]2C3)cc(Br)n1 [Example 540]

Tryp AVG EC1.5 (μM) [2]: B (B (EC1.5 1-25 μM))
SMILES: O=C(Nc1ccncn1)N1c2nc(-c3cccc(C(F)(F)F)n3)ccc2N2CC[C@H]1C2 [Example 337]

Tryp AVG EC1.5 (μM) [2]: B (B (EC1.5 1-25 μM))
SMILES: Cn1cc(-c2ccc3c(n2)N(C(=O)Nc2ccccn2)[C@H]2CCN3C2)cn1 [Example 349]

Tryp AVG EC1.5 (μM) [3]: A (A (EC1.5<1 μM))
SMILES: O=C(Nc1cccc(-c2cnco2)n1)N1c2nc(-c3cncc(F)c3)ccc2N2CC[C@H]1C2 [Example 739]

TRP Activity (EC1.5) (Trp peptide assay): B (B (EC1.5 1-25 μM))
Emax [4]: > 150%
SMILES: O=C(Nc1ccccn1)N1c2nc(N3CCC[C@H](C(F)(F)F)C3)ccc2N2CC[C@H]1C2 [(9S)-N-(pyridin-2-yl)-5-[(3S)-3-(trifluoromethyl)piperidin-1-yl]-1,6,8-triazatricyclo[7.2.1.0 {2,7}]dodeca-2,4,6-triene-8-carboxamide]

Tryp AVG EC1.5 (μM) [1]: A (A (EC1.5<1 μM))
SMILES: O=C(Nc1cccc(-c2cnco2)n1)N1c2nc(-c3cccc(C(F)(F)F)c3)ccc2N2CCC1CC2 [Example 596]

TRP Activity (EC1.5) (Trp peptide assay): B (B (EC1.5 1-25 μM))
Emax [4]: > 150%
SMILES: Cc1cc(-c2ccc3c(n2)N(C(=O)Nc2nccc(C)n2)[C@H]2CCN3C2)ccn1 [(9S)-5-(2-methylpyridin-4-yl)-N-(4-methylpyrimidin-2-yl)-1,6,8-triazatricyclo[7.2.1.0^{2,7}]dodeca-2,4,6-triene-8-carboxamide]

Tryp AVG EC1.5 (μM) [2]: B (B (EC1.5 1-25 μM))
SMILES: COc1cc(NC(=O)N2c3nc(-c4cccc(CC(O)CO)c4)ccc3N3CC[C@H]2C3)ncn1 (stereo partly drawn) [Example 355]

Tryp AVG EC1.5 (μM) [1]: B (B (EC1.5 1-25 μM))
SMILES: N#Cc1cncc(-c2ccc3c(n2)N(C(=O)Nc2ccncn2)[C@H]2CCCN3C2)c1 [Example 558]

TRP Activity (EC1.5) (Trp peptide assay): A (A (EC1.5<1 μM))
Emax [4]: > 150%
SMILES: O=C(Nc1ccnc(O[C@@H]2CCOC2)n1)N1c2nc(-c3cccc(C(F)(F)F)c3)ccc2N2CC[C@H]1C2 [(9S)-N-{2-[(3R)-oxolan-3-yloxy]pyrimidin-4-yl}-5-[3-(trifluoromethyl)phenyl]-1,6,8-triazatricyclo[7.2.1.0 {2,7}]dodeca-2(7),3,5-triene-8-carboxamide]

Tryp AVG EC1.5 (μM) [1]: B (B (EC1.5 1-25 μM))
SMILES: Cc1ccc(-c2ccc3c(n2)N(C(=O)Nc2cccnc2)[C@H]2CCCN3C2)cn1 [Example 514]

Tryp AVG EC1.5 (μM) [1]: A (A (EC1.5<1 μM))
SMILES: Cc1nc(NC(=O)N2c3nc(-c4cncc(C(F)(F)F)c4)ccc3N3CCC[C@H]2C3)sc1C [Example 427]

Tryp AVG EC1.5 (μM) [1]: B (B (EC1.5 1-25 μM))
SMILES: O=C(Nc1ccncn1)N1c2nc(-c3cccc(N4CCOCC4)c3)ccc2N2CCC[C@H]1C2 [Example 529]

Tryp AVG EC1.5 (μM) [2]: B (B (EC1.5 1-25 μM))
SMILES: COc1cncc(-c2ccc3c(n2)N(C(=O)Nc2ccccn2)[C@H]2CCN3C2)c1 [Example 346]

Tryp AVG EC1.5 (μM) [1]: A (A (EC1.5<1 μM))
SMILES: O=C(CCCC[C@@H]1SCC2NC(=O)NC21)NCCCCCC(=O)NCc1ccc(NC(=O)N2c3nc(-c4cccc(C(F)(F)F)c4)ccc3N3CC[C@H]2C3)cc1 (stereo partly drawn) [Example 428]

Tryp AVG EC1.5 (μM) (Trp peptide substrate, concentration giving 150% activation of SIRT1): A (A (EC1.5<1 μM))
SMILES: O=C(Nc1ccc2c(c1)OCCCO2)N1c2nc(-c3cccc(C(F)(F)F)c3)ccc2N2CC[C@H]1C2 [Example 95]

TRP Activity (EC1.5) (Trp peptide assay): B (B (EC1.5 1-25 μM))
Emax [4]: > 150%
SMILES: Cc1ccc(-c2cc(C)c3c(n2)N(C(=O)Nc2ccccn2)[C@H]2CCN3C2)cn1 [(9S)-3-methyl-5-(6-methylpyridin-3-yl)-N-(pyridin-2-yl)-1,6,8-triazatricyclo[7.2.1.0^{2,7}]dodeca-2,4,6-triene-8-carboxamide]

Tryp AVG EC1.5 (μM) [1]: B (B (EC1.5 1-25 μM))
SMILES: Cc1nc(C)c(-c2ccc3c(n2)N(C(=O)Nc2cccnc2)[C@H]2CCN3C2)s1 [Example 495]

Tryp AVG EC1.5 (μM) [3]: A (A (EC1.5<1 μM))
Emax [5]: > 150%
SMILES: C#CCCCNc1nccc(NC(=O)N2c3nc(-c4ccc(C5(C(F)(F)F)N=N5)cc4)ccc3N3CC[C@H]2C3)n1 [Example 798]

Tryp AVG EC1.5 (μM) [3]: A (A (EC1.5<1 μM))
Emax [5]: > 150%
SMILES: [N-]=[N+]=Nc1cc(N=[N+]=[N-])cc(-c2ccc3c(n2)N(C(=O)Nc2ccc(F)cn2)[C@H]2CCN3C2)c1 [Example 806]

TRP Activity (EC1.5) (Trp peptide assay, hydrochloride): A (A (EC1.5<1 μM))
Emax [4]: > 150%
SMILES: O=C(Nc1ccccn1)N1c2nc(N3CC[C@H](C(F)(F)F)C3)ccc2N2CCC[C@H]1C2 [drawing 1225, (9S)-N-(pyridin-2-yl)-5-[(3S)-3-(trifluoromethyl)pyrrolidin-1-yl]-1,6,8-triazatricyclo[7.3.1.0 {2,7}]trideca-2(7),3,5-triene-8-carboxamide hydrochloride]

TRP Activity (EC1.5) (Trp peptide assay): C (C (EC1.5>25 μM))
Emax [4]: < 150%
SMILES: Cc1cc(-c2ccc3c(n2)N(C(=O)N2CCCC2)[C@H]2CCN3C2)ccn1 [(9S)-5-(2-methylpyridin-4-yl)-8-[(pyrrolidin-1-yl)carbonyl]-1,6,8-triazatricyclo[7.2.1.0 {2,7}]dodeca-2,4,6-triene]

TRP Activity (EC1.5) (Trp peptide assay): A (A (EC1.5<1 μM))
Emax [4]: > 150%
SMILES: O=C(Nc1cnccn1)N1c2nc(-c3cnc(C4CC4)c(C(F)(F)F)c3)ccc2N2CC[C@H]1C2 [(9S)-5-[6-cyclopropyl-5-(trifluoromethyl)pyridin-3-yl]-N-(pyrazin-2-yl)-1,6,8-triazatricyclo[7.2.1.0 {2,7}]dodeca-2,4,6-triene-8-carboxamide]

Tryp AVG EC1.5 (μM) [1]: A (A (EC1.5<1 μM))
SMILES: O=C(Nc1ccncc1F)N1c2nc(-c3cccc(Cl)c3)ccc2N2CCC[C@H]1C2 [Example 421]

Tryp AVG EC1.5 (μM) [1]: A (A (EC1.5<1 μM))
SMILES: N#Cc1cc(-c2ccc3c(n2)N(C(=O)Nc2cnccn2)[C@H]2CCN3C2)ccc1F [Example 419]

Tryp AVG EC1.5 (μM) [2]: B (B (EC1.5 1-25 μM))
SMILES: Cc1n[nH]cc1-c1ccc2c(n1)N(C(=O)Nc1ccccn1)[C@H]1CCN2C1 [Example 370]

Tryp AVG EC1.5 (μM) [1]: C (C (EC1.5>25 μM))
SMILES: CC(=O)N1CCCN(c2ccc3c(n2)N(C(=O)Nc2ccncn2)[C@H]2CCCN3C2)CC1 [Example 434]

Tryp AVG EC1.5 (μM) [2]: A (A (EC1.5<1 μM))
SMILES: O=C(Nc1ccccn1)N1c2nc(-c3cncc(Cl)c3)ccc2N2CCC[C@H]1C2 [Example 406]

Tryp AVG EC1.5 (μM) [3]: A (A (EC1.5<1 μM))
SMILES: O=C(Nc1cc(-c2cnco2)cc(-c2cnco2)c1)N1c2nc(-c3cccc(C(F)(F)F)c3)ccc2N2CC[C@H]1C2 [Example 743]

Tryp AVG EC1.5 (μM) [1]: B (B (EC1.5 1-25 μM))
SMILES: Cc1cc(-c2ccc3c(n2)N(C(=O)Nc2ccncn2)[C@H]2CCN3C2)ccn1 [Example 468]

Tryp AVG EC1.5 (μM) [3]: B (B (EC1.5 1-25 μM))
SMILES: O=C(NCCCc1cccnc1)N1c2nc(-c3cccc(C(F)(F)F)c3)ccc2N2CC[C@H]1C2 [Example 674]

Tryp AVG EC1.5 (μM) [3]: A (A (EC1.5<1 μM))
SMILES: CC(=O)N1CCC(c2cccc(NC(=O)N3c4nc(-c5cccc(C(F)(F)F)c5)ccc4N4CC[C@H]3C4)c2)C1 (stereo partly drawn) [Example 635]

Tryp AVG EC1.5 (μM) [1]: B (B (EC1.5 1-25 μM))
SMILES: COc1cc(NC(=O)N2c3nc(-c4cncc(F)c4)ccc3N3CCC2CC3)ncn1 [Example 579]

Tryp AVG EC1.5 (μM) [3]: A (A (EC1.5<1 μM))
SMILES: O=C(Nc1cccc(-c2ccsc2)n1)N1c2nc(-c3cccc(C(F)(F)F)c3)ccc2N2CC[C@H]1C2 [Example 653]

Tryp AVG EC1.5 (μM) [1]: A (A (EC1.5<1 μM))
SMILES: O=C(Nc1cccnc1)N1c2nc(-c3cccc(Cl)c3)ccc2N2CCC1CC2 [Example 496]
